Reference: patent US20260317324A1, “BIFUNCTIONAL COMPOUNDS FOR DEGRADING BRAF VIA UBIQUITIN PROTEOSOME PATHWAY” (Nurix Therapeutics, Inc., priority 2023, published 2026)

Columns and labels:
Assay type in all cases: cell-based
BRAF V600E = target: T1, BRAF V600E (Homo sapiens, UniProt P15056, V600E); assay: BRAF HiBiT degradation assay, C-terminal HiBiT-tagged BRAF V600E A375 cells (clone 1F10), Nano-Glo HiBiT Lytic assay; conditions: for Dmax: A-375
T1 construct: endogenous C-terminal HiBiT fusion tag on BRAF V600E allele; endogenous in cells; host or cells: A375 clone 1F10 (CRISPR-Cas9 knock-in of the HiBiT tag; parental A375 from ATCC)
T1 sequence (P15056 whole entry V600E, the tested form may be a part): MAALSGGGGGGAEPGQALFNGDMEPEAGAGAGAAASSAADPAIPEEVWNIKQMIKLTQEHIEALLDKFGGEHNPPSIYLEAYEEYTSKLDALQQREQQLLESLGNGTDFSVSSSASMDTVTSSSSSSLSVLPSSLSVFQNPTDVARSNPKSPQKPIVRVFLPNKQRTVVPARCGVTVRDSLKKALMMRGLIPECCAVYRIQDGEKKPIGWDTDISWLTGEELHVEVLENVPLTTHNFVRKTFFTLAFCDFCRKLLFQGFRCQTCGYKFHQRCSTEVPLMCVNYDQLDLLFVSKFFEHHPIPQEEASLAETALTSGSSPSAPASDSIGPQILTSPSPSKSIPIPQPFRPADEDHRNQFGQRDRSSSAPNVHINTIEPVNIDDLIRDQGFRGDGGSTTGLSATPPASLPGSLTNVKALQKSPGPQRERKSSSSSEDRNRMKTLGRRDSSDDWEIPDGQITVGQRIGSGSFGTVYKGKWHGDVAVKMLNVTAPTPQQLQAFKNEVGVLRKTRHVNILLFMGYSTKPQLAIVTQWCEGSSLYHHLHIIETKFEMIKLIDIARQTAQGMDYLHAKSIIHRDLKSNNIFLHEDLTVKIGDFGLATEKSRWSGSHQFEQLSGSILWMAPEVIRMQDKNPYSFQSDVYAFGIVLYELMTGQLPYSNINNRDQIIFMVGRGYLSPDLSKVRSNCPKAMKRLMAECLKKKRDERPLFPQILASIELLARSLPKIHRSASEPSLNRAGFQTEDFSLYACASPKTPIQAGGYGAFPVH
Outline: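 Luminescence read-out: Nano-Glo HiBiT lytic reagent with LgBiT, 10 min at room temperature. Signal normalised to DMSO-treated tagged cells, with wildtype A375 as background. Cells are endogenously tagged BRAF V600E A375 clone 1F10. Compounds were tested from 1 μM to 0.01 nM; Dmax is observed % degraded at maximal effect.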

BRAF G466V = target: T2, BRAF G466V (Homo sapiens, UniProt P15056, G466V); assay: BRAF HiBiT degradation assay, C-terminal HiBiT-tagged BRAF G466V overexpressed in HCT-116 BRAF−/− cells (clone 8), Nano-Glo HiBiT Lytic assay
T2 construct: Horizon Discovery (HCT-116 BRAF−/− cells); host or cells: HCT-116 BRAF−/− cells, clone 8, lentiviral transduction
T2 sequence (P15056 whole entry G466V): as the sequence (P15056 whole entry V600E, the tested form may be a part) above, with G466V, E600V counted along it
Outline: (§1)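 Cells 3,000/well, 24 h at 37 °C; cpds 1 μM–0.01 nM, 11-pt half-log, duplicate, 0.2% DMSO. Readout: HiBiT lytic luminescence, 10 min at RT. Normalized to DMSO-treated tagged cells, with DMSO-treated wild-type HCT-116 as background. DC50 = fitted concentration at Y=50; Obs. Dmax = % degraded at maximal effect.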

BRAF G469A = target: T3, BRAF G469A (Homo sapiens, UniProt P15056, G469A); assay: BRAF HiBiT degradation assay, C-terminal HiBiT-tagged BRAF G469A overexpressed in HCT-116 BRAF−/− cells (clone 34), Nano-Glo HiBiT Lytic assay
T3 construct: Horizon Discovery (HCT-116 BRAF−/− cells); host or cells: HCT-116 BRAF−/− cells, clone 34, lentiviral transduction
T3 sequence (P15056 whole entry G469A): as the sequence (P15056 whole entry V600E, the tested form may be a part) above, with G469A, E600V counted along it
Outline: as §1

BRAF D594G = target: T4, BRAF D594G (Homo sapiens, UniProt P15056, D594G); assay: BRAF HiBiT degradation assay, C-terminal HiBiT-tagged BRAF D594G overexpressed in HCT-116 BRAF−/− cells (clone 63), Nano-Glo HiBiT Lytic assay
T4 construct: Horizon Discovery (HCT-116 BRAF−/− cells); host or cells: HCT-116 BRAF−/− cells, clone 63, lentiviral transduction
T4 sequence (P15056 whole entry D594G): as the sequence (P15056 whole entry V600E, the tested form may be a part) above, with D594G, E600V counted along it
Outline: as §1

[1] = A375 (BRAF V600E), DC50 at 50%: fitted conc. at Y=50
[2] = A375 (BRAF V600E), percentage protein degraded at maximal compound effect relative to DMSO
[3] = BRAF G466V, DC50 at 50%: fitted conc. at Y=50
[4] = HCT-116, BRAF G466V, percentage protein degraded at maximal compound effect relative to DMSO
[5] = Class 2, BRAF G469A, DC50 at 50%: fitted conc. at Y=50
[6] = HCT-116, Class 2, BRAF G469A, percentage protein degraded at maximal compound effect relative to DMSO
[7] = BRAF D594G, DC50 at 50%: fitted conc. at Y=50
[8] = HCT-116, BRAF D594G, percentage protein degraded at maximal compound effect relative to DMSO
[9] = A375 (BRAF V600E, Class 1), DC50 at 50% degradation
[10] = A375 (BRAF V600E, Class 1), observed Dmax, % protein degraded relative to DMSO control
[11] = BRAF G466V (Class 3), HCT-116 BRAF−/− cells, DC50 at 50% degradation
[12] = BRAF G466V (Class 3), HCT-116 BRAF−/− cells, observed Dmax relative to DMSO control
[13] = BRAF G469A (Class 2), HCT-116 BRAF−/− cells, DC50 at 50% degradation
[14] = BRAF G469A (Class 2), HCT-116 BRAF−/− cells, observed Dmax relative to DMSO control
[15] = BRAF D594G (Class 3), HCT-116 BRAF−/− cells, DC50 at 50% degradation
[16] = BRAF D594G (Class 3), HCT-116 BRAF−/− cells, observed Dmax relative to DMSO control

## CCCS(=O)(=O)Nc1cccc(-c2nc(C(C)(C)C)sc2-c2ccnc(Nc3cnn(C4CCN(CC[C@H]5CCN(c6ccc(C7CCC(=O)NC7=O)cn6)C5)CC4)c3)n2)c1F (mixture of isomers) [Compound 77, N-{3-[2-tert-butyl-5-(2-{[1-(1-{2-[(3S)-1-{5-[(3RS)-2,6-dioxopiperidin-3-yl]pyridin-2-yl}pyrrolidin-3-yl]ethyl}piperidin-4-yl)-1H-pyrazol-4-yl]amino}pyrimidin-4-yl)-1,3-thiazol-4-yl]-2-fluorophenyl}propane-1-sulfonamide]
BRAF V600E; [1]
  DC50: 10 to 50 nM
BRAF V600E; [2]
  Dmax: 30 to 70%
BRAF G466V; [3]
  DC50: > 500 nM
BRAF G466V; [4]
  Dmax: < 30%
BRAF G469A; [5]
  DC50: > 500 nM
BRAF G469A; [6]
  Dmax: < 30%
BRAF D594G; [7]
  DC50: > 500 nM
BRAF D594G; [8]
  Dmax: 30 to 70%

## CCN(C)S(=O)(=O)Nc1cc(F)cc(-c2cn(-c3ccc(N4CCN(CC5CCN(c6ccc([C@H]7CCC(=O)NC7=O)cn6)CC5)CC4)cc3)nc2-c2ccncc2)c1F [Compound 375, (3R)-3-(6-{4-[(4-{4-[4-(3-{[ethyl(methyl)sulfamoyl]amino}-2,5-difluorophenyl)-3-(pyridin-4-yl)-1H-pyrazol-1-yl]phenyl}piperazin-1-yl)methyl]piperidin-1-yl}pyridin-3-yl)piperidine-2,6-dione]
BRAF V600E; [9]
  DC50: < 10 nM
BRAF V600E; [10]
  Dmax: > 70%
BRAF G466V; [11]
  DC50: < 10 nM
BRAF G466V; [12]
  Dmax: > 70%
BRAF G469A; [13]
  DC50: 10 to 50 nM
BRAF G469A; [14]
  Dmax: > 70%
BRAF D594G; [15]
  DC50: < 10 nM
BRAF D594G; [16]
  Dmax: > 70%

## O=C1CC[C@H](c2ccc(N3CCC(CN4CCN(c5ccc(-n6cc(-c7cc(Cl)cc(NS(=O)(=O)N8CCCC8)c7F)c(-c7ccncc7)n6)nc5)CC4)CC3)nc2)C(=O)N1 [Compound 290, N-{5-chloro-3-[1-(5-{4-[(1-{5-[(3R)-2,6-dioxopiperidin-3-yl]pyridin-2-yl}piperidin-4-yl)methyl]piperazin-1-yl}pyridin-2-yl)-3-(pyridin-4-yl)-1H-pyrazol-4-yl]-2-fluorophenyl}pyrrolidine-1-sulfonamide]
BRAF V600E; [9]
  DC50: < 10 nM
BRAF V600E; [10]
  Dmax: > 70%
BRAF G466V; [11]
  DC50: < 10 nM
BRAF G466V; [12]
  Dmax: > 70%
BRAF G469A; [13]
  DC50: < 10 nM
BRAF G469A; [14]
  Dmax: > 70%
BRAF D594G; [15]
  DC50: < 10 nM
BRAF D594G; [16]
  Dmax: > 70%

## CCCS(=O)(=O)Nc1cccc(-c2nc(C(C)(C)C)sc2-c2ccnc(Nc3cnn(C4CCN(C(=O)CN5CCC(c6ccc(NC7CCC(=O)NC7=O)cc6)CC5)CC4)c3)n2)c1F (racemic) [Compound 108, Rac-N-{3-[2-tert-butyl-5-(2-{[1-(1-{2-[4-(4-{[(3R)-2,6-dioxopiperidin-3-yl]amino}phenyl)piperidin-1-yl]acetyl}piperidin-4-yl)-1H-pyrazol-4-yl]amino}pyrimidin-4-yl)-1,3-thiazol-4-yl]-2-fluorophenyl}propane-1-sulfonamide]
BRAF V600E; [1]
  DC50: < 10 nM
BRAF V600E; [2]
  Dmax: > 70%
BRAF G466V; [3]
  DC50: > 500 nM
BRAF G466V; [4]
  Dmax: < 30%
BRAF G469A; [5]
  DC50: > 500 nM
BRAF G469A; [6]
  Dmax: < 30%
BRAF D594G; [7]
  DC50: > 500 nM
BRAF D594G; [8]
  Dmax: 30 to 70%

## CCN(C)S(=O)(=O)Nc1cccc(-c2cn(-c3ccc(N4CCN(CC5CCN(c6ccc([C@@H]7CCC(=O)NC7=O)cn6)CC5)CC4)c(F)c3)nc2-c2ccncc2)c1F [Compound 380, (3S)-3-(6-{4-[(4-{4-[4-(3-{[ethyl(methyl)sulfamoyl]amino}-2-fluorophenyl)-3-(pyridin-4-yl)-1H-pyrazol-1-yl]-2-fluorophenyl}piperazin-1-yl)methyl]piperidin-1-yl}pyridin-3-yl)piperidine-2,6-dione]
BRAF V600E; [9]
  DC50: 50 to 500 nM
BRAF V600E; [10]
  Dmax: > 70%
BRAF G466V; [11]
  DC50: 50 to 500 nM
BRAF G466V; [12]
  Dmax: 30 to 70%
BRAF G469A; [13]
  DC50: > 500 nM
BRAF G469A; [14]
  Dmax: 30 to 70%
BRAF D594G; [15]
  DC50: 10 to 50 nM
BRAF D594G; [16]
  Dmax: 30 to 70%

## CCCS(=O)(=O)Nc1cccc(-c2nc(-c3ccc(N4CCN(CC5CCN(c6ccc([C@@H]7CCC(=O)NC7=O)cc6)CC5)CC4)cc3)sc2-c2ccnc(N)n2)c1F [Compound 186, N-{3-[5-(2-aminopyrimidin-4-yl)-2-(4-{4-[(1-{4-[(3S)-2,6-dioxopiperidin-3-yl]phenyl}piperidin-4-yl)methyl]piperazin-1-yl}phenyl)-1,3-thiazol-4-yl]-2-fluorophenyl}propane-1-sulfonamide]
BRAF V600E; [1]
  DC50: 10 to 50 nM
BRAF V600E; [2]
  Dmax: > 70%
BRAF G466V; [3]
  DC50: > 500 nM
BRAF G466V; [4]
  Dmax: 30 to 70%
BRAF G469A; [5]
  DC50: > 500 nM
BRAF G469A; [6]
  Dmax: < 30%
BRAF D594G; [7]
  DC50: > 500 nM
BRAF D594G; [8]
  Dmax: 30 to 70%

## CCCS(=O)(=O)Nc1cccc(-c2nc(C(C)(C)C)sc2-c2ccnc(N[C@H]3CC[C@@H](N4CCN(CC5CCN(c6ccc(C7CCC(=O)NC7=O)cn6)CC5)CC4)CC3)n2)c1F (mixture of isomers) [Compound 134, N-{3-[2-tert-butyl-5-(2-{[(1s,4s)-4-{4-[(1-{5-[(3RS)-2,6-dioxopiperidin-3-yl]pyridin-2-yl}piperidin-4-yl)methyl]piperazin-1-yl}cyclohexyl]amino}pyrimidin-4-yl)-1,3-thiazol-4-yl]-2-fluorophenyl}propane-1-sulfonamide]
BRAF V600E; [1]
  DC50: 10 to 50 nM
BRAF V600E; [2]
  Dmax: > 70%
BRAF G466V; [3]
  DC50: 10 to 50 nM
BRAF G466V; [4]
  Dmax: 30 to 70%
BRAF G469A; [5]
  DC50: 50 to 500 nM
BRAF G469A; [6]
  Dmax: 30 to 70%
BRAF D594G; [7]
  DC50: 10 to 50 nM
BRAF D594G; [8]
  Dmax: 30 to 70%

## O=C1CCC(c2ccc(N3CCC(CN4CCN(c5ccc(-n6cc(-c7cc(Cl)cc(NS(=O)(=O)N8CCCC8)c7F)c(-c7ccncc7)n6)cc5)CC4)CC3)c(F)c2)C(=O)N1 (racemic) [Compound 347, Rac-N-{5-chloro-3-[1-(4-{4-[(1-{4-[(3R)-2,6-dioxopiperidin-3-yl]-2-fluorophenyl}piperidin-4-yl)methyl]piperazin-1-yl}phenyl)-3-(pyridin-4-yl)-1H-pyrazol-4-yl]-2-fluorophenyl}pyrrolidine-1-sulfonamide]
BRAF V600E; [9]
  DC50: < 10 nM
BRAF V600E; [10]
  Dmax: > 70%
BRAF G466V; [11]
  DC50: < 10 nM
BRAF G466V; [12]
  Dmax: > 70%
BRAF G469A; [13]
  DC50: 10 to 50 nM
BRAF G469A; [14]
  Dmax: 30 to 70%
BRAF D594G; [15]
  DC50: < 10 nM
BRAF D594G; [16]
  Dmax: > 70%

## CCCS(=O)(=O)Nc1cccc(-c2nc(C3CCN(C(=O)C4CCN(CC5CCN(c6ccc(C7CCC(=O)NC7=O)cn6)CC5)CC4)CC3)sc2-c2ccnc(NC)n2)c1F (racemic) [Compound 217, Rac-N-{3-[2-(1-{1-[(1-{5-[(3R)-2,6-dioxopiperidin-3-yl]pyridin-2-yl}piperidin-4-yl)methyl]piperidine-4-carbonyl}piperidin-4-yl)-5-[2-(methylamino)pyrimidin-4-yl]-1,3-thiazol-4-yl]-2-fluorophenyl}propane-1-sulfonamide]
BRAF V600E; [1]
  DC50: 10 to 50 nM
BRAF V600E; [2]
  Dmax: > 70%
BRAF G466V; [3]
  DC50: > 500 nM
BRAF G466V; [4]
  Dmax: 30 to 70%
BRAF G469A; [5]
  DC50: > 500 nM
BRAF G469A; [6]
  Dmax: < 30%
BRAF D594G; [7]
  DC50: > 500 nM
BRAF D594G; [8]
  Dmax: 30 to 70%

## CCCS(=O)(=O)Nc1cccc(-c2nc(C3(C)CCN(C(=O)CN4CCC5(CC4)CN(c4ccc6c(c4)C(=O)N(C4CCC(=O)NC4=O)C6=O)C5)CC3)sc2-c2ccnc(N)n2)c1F (racemic) [Compound 238, Rac-N-{3-[5-(2-aminopyrimidin-4-yl)-2-{1-[2-(2-{2-[(3R)-2,6-dioxopiperidin-3-yl]-1,3-dioxo-2,3-dihydro-1H-isoindol-5-yl}-2,7-diazaspiro[3.5]nonan-7-yl)acetyl]-4-methylpiperidin-4-yl}-1,3-thiazol-4-yl]-2-fluorophenyl}propane-1-sulfonamide]
BRAF V600E; [1]
  DC50: < 10 nM
BRAF V600E; [2]
  Dmax: > 70%
BRAF G466V; [3]
  DC50: 10 to 50 nM
BRAF G466V; [4]
  Dmax: 30 to 70%
BRAF G469A; [5]
  DC50: > 500 nM
BRAF G469A; [6]
  Dmax: 30 to 70%
BRAF D594G; [7]
  DC50: < 10 nM
BRAF D594G; [8]
  Dmax: 30 to 70%
